Converted amounts (≈) assume the structure as drawn.
System: Mannheimia haemolytica
Assay: minimum inhibitory concentration (MIC)
Description: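 Broth microdilution MIC (Sensititre BOPO7F bovine plate, CLSI methods) of 19 antimicrobials against field isolates of P. multocida, M. haemolytica, H. somni (deep nasopharyngeal swabs) and E. coli, Enterococcus spp. (rectal swabs) from weaned dairy heifers. Incubation 16-24 h at 35 C. MIC is the lowest concentration preventing visible growth. Values with <= or > lie at the tested range limits. Trimethoprim-sulfamethoxazole is given as the trimethoprim component of a 1:19 mixture.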

CO/N=C(\C(=O)N[C@@H]1C(=O)N2C(C(=O)O)=C(CSC(=O)c3ccco3)CS[C@H]12)c1csc(N)n1 [Ceftiofur]
Conditions | minimum inhibitory concentration [µg/mL]
isolate (source animal id): 8 | ≤ 0.25
isolate (source animal id): 13 | ≤ 0.25
isolate (source animal id): 18 | ≤ 0.25
isolate (source animal id): 21 | ≤ 0.25
isolate (source animal id): 25 | ≤ 0.25
isolate (source animal id): 27 | ≤ 0.25
isolate (source animal id): 28 | 2 (≈ 3.82 µM)
isolate (source animal id): 30 | ≤ 0.25
isolate (source animal id): 31 | ≤ 0.25
isolate (source animal id): 32 | ≤ 0.25
isolate (source animal id): 34 | ≤ 0.25
isolate (source animal id): 36 | ≤ 0.25
isolate (source animal id): 37 | ≤ 0.25
isolate (source animal id): 40 | ≤ 0.25
isolate (source animal id): 41 | ≤ 0.25
isolate (source animal id): 43 | ≤ 0.25
isolate (source animal id): 46 | ≤ 0.25
isolate (source animal id): 49 | ≤ 0.25
isolate (source animal id): 50 | ≤ 0.25
isolate (source animal id): 51 | ≤ 0.25
isolate (source animal id): 52 | ≤ 0.25
isolate (source animal id): 53 | ≤ 0.25
isolate (source animal id): 55 | ≤ 0.25
isolate (source animal id): 56 | ≤ 0.25
isolate (source animal id): 57 | ≤ 0.25
isolate (source animal id): 100 | ≤ 0.25
isolate (source animal id): 103 | ≤ 0.25
isolate (source animal id): 107 | ≤ 0.25
isolate (source animal id): 108 | ≤ 0.25
isolate (source animal id): 112 | ≤ 0.25
isolate (source animal id): 113 | ≤ 0.25
isolate (source animal id): 121 | ≤ 0.25
isolate (source animal id): 122 | ≤ 0.25
isolate (source animal id): 123 | ≤ 0.25
isolate (source animal id): 126 | ≤ 0.25
isolate (source animal id): 133 | ≤ 0.25
isolate (source animal id): 135 | ≤ 0.25
isolate (source animal id): 138 | ≤ 0.25
isolate (source animal id): 141 | ≤ 0.25
isolate (source animal id): 142 | ≤ 0.25
isolate (source animal id): 145 | ≤ 0.25
isolate (source animal id): 149 | ≤ 0.25
isolate (source animal id): 151 | ≤ 0.25
isolate (source animal id): 152 | ≤ 0.25
isolate (source animal id): 154 | ≤ 0.25
isolate (source animal id): 159 | ≤ 0.25
isolate (source animal id): 162 | ≤ 0.25
isolate (source animal id): 170 | ≤ 0.25
isolate (source animal id): 171 | ≤ 0.25
isolate (source animal id): 172 | ≤ 0.25
isolate (source animal id): 173 | ≤ 0.25
isolate (source animal id): 179 | ≤ 0.25
isolate (source animal id): 180 | ≤ 0.25
isolate (source animal id): 183 | ≤ 0.25
isolate (source animal id): 186 | ≤ 0.25
isolate (source animal id): 187 | ≤ 0.25
isolate (source animal id): 188 | ≤ 0.25
isolate (source animal id): 190 | ≤ 0.25
isolate (source animal id): 191 | ≤ 0.25
isolate (source animal id): 192 | ≤ 0.25
isolate (source animal id): 201 | ≤ 0.25
isolate (source animal id): 202 | ≤ 0.25
isolate (source animal id): 209 | ≤ 0.25
isolate (source animal id): 211 | ≤ 0.25
isolate (source animal id): 220 | ≤ 0.25
isolate (source animal id): 221 | ≤ 0.25
isolate (source animal id): 223 | ≤ 0.25
isolate (source animal id): 233 | ≤ 0.25
isolate (source animal id): 237 | ≤ 0.25
isolate (source animal id): 241 | ≤ 0.25
isolate (source animal id): 252 | ≤ 0.25
isolate (source animal id): 253 | ≤ 0.25
isolate (source animal id): 259 | ≤ 0.25
isolate (source animal id): 260 | ≤ 0.25
isolate (source animal id): 262 | ≤ 0.25
isolate (source animal id): 282 | ≤ 0.25
isolate (source animal id): 287 | ≤ 0.25

Reference: the supplement of paper PMC8612539
